Results as given in patent publication US20150266857A1, “NOVEL 3-INDOL SUBSTITUTED DERIVATIVES, PHARMACEUTICAL COMPOSITIONS AND METHODS FOR USE” (iTeos Therapeutics, priority 2014, published 2015).

Key:
[1] = biological target: T1, human recombinant TDO2 enzyme (Homo sapiens, UniProt P48775); assay: Assay for TDO2 enzymatic activity determination; type: biochemical; settings: human recombinant TDO2, L-Trp 1 mM, kynurenine absorbance at 480 nm
T1 construct: made in house
Description: To measure the TDO2 activity, the procedure described in Dolusic et al. J. Med. Chem.; 2011, 54, […] was adapted: the reaction mixture contained (final concentrations) potassium phosphate buffer (50 mM, pH 7.5), ascorbic acid (0.25 M), methylene blue (0.125 μM), catalase (40 units/mL, from bovine liver, Sigma), and human recombinant TDO2 enzyme (prepared as described in Dolusic et al. J. Med. Chem.; 2011, 54, 5320-5334; 0.9 μg) without or with the compounds of the present invention at the indicated concentrations (total volume 112.5 μL). The reaction was initiated by the addition of 37.5 μL of L-Trp (final concentration 1 mM) at room temperature. The reaction was conducted at room temperature during one hour and stopped by the addition of 30 μL of 30% (w/v) trichloroacetic acid.
To convert N-formylkynurenine into kynurenine, the reaction mixture was incubated at 65° C. for 30 min. Then 150 μL of the reaction mixture was mixed with 120 μL of 2.5% (w/v) 4-(dimethylamino)-benzaldehyde in acetic acid and incubated for 5 min at room temperature. Kynurenine concentrations were determined by measuring the absorbance at 480 nm. A standard curve was made with pure kynurenine. The TDO activity was measured as described above using ten serial concentrations of the compounds of the present invention. Data were fitted using the Prism™ software (GraphPad Software, Inc.) using standard parameters.

[2] = biological target: T2, murine mastocytoma P815 cells overexpressing hTDO2 (Homo sapiens, UniProt P48775); assay: Cellular assay for TDO2 activity, hTDO2-overexpressing P815 cells; type: cell-based; settings: P815 cells overexpressing hTDO2, overnight incubation, kynurenine in supernatant
T2 construct: expressed in transfected cells; host or cells: murine mastocytoma P815 cells
Description: The assay (adapted from Pilotte L et al., Proc Natl Acad Sci USA, 2012, 109(7), 2497-502) was performed in 96-well flat bottom plates seeded with murine mastocytoma P815 cells overexpressing hTDO2 (prepared as described in Pilotte et al., PNAS, 2012, 109(7), 2497-2502), at a concentration of 5×10^4 cells/well in a final volume of 200 μL. To determine TDO or IDO activity, the cells were incubated overnight at 37° C. at 5% CO2 in IMDM (Invitrogen) supplemented with 2% FBS and 2% penicillin/streptomycin in the presence of the compounds of the present invention, at different concentrations. The cells may be obtained from the American Type Cuylture Collecion [ATCC® TIB-64™ or commercially, e.g., from Sigma-Aldrich or Life Technologies.]
The plates were then centrifuged 5 min at 1000 rpm, and 100 μL of the supernatant were collected in a conical plate, 30 uL of TCA 30% were added and a further centrifugated at 3000×g for 10 minutes. 100 μL of the supernatant were collected in a flat bottomed plate and 100 μL of 2% (w/v) 4-(dimethylamino)-benzaldehyde in acetic acid and incubated for 5 min at room temperature. Kynurenine concentrations were determined by measuring the absorbance at 480 nm. A standard curve was made with pure kynurenine. The TDO activity was measured as described above using ten serial concentrations of the compounds of the present invention. Data were fitted using the Prism™ software (GraphPad Software, Inc.) using standard parameters.

[3] = biological target: T3, human glioblastoma A172 cells, naturally expressing hTDO2 (Homo sapiens, UniProt P48775); assay: Cellular assay for TDO2 activity, A172 cells; type: cell-based; settings: overnight incubation, kynurenine in supernatant
T3 construct: human glioblastoma A172 cells, naturally expressing hTDO2; endogenous in cells; host or cells: human glioblastoma A172 cells (ATCC CRL-1620)
In short: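 A172 human glioblastoma cells naturally expressing TDO2, seeded at 1.25×10^4 cells/well, were incubated overnight at 37 °C in IMDM with 2% FBS and ten serial compound concentrations. Supernatant kynurenine, after TCA precipitation and Ehrlich's reagent, was read at 480 nm against a kynurenine standard curve; data curve-fitted.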

T2 sequence (P48775 whole entry): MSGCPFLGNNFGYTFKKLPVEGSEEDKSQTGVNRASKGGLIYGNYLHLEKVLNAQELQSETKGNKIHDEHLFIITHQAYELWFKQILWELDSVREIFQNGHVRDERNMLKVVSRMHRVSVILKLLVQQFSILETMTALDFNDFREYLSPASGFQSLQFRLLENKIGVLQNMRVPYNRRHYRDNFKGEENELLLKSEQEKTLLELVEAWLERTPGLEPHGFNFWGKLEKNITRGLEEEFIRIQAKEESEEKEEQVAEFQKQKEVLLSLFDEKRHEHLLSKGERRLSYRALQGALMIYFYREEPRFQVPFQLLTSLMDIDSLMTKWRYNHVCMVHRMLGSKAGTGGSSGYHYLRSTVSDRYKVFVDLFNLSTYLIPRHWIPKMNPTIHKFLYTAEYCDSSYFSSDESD
T3 sequence (P48775 whole entry): as above
T1 sequence (P48775 whole entry): as above

Row | SMILES | IC50 [1] [nM] | IC50 [2] [nM] | IC50 [3] [nM]
1 | Fc1ccc2c(-c3ccc4cn[nH]c4c3)c[nH]c2c1 [Compound 1, 6-(6-fluoro-1H-indol-3-yl)-1H-indazole] | 586 | 154 | 178
2 | Cc1nc2cc(-c3c[nH]c4cc(F)ccc34)ccc2[nH]1 [Compound 26, 5-(6-fluoro-1H-indol-3-yl)-2-methyl-1H-benzo[d]imidazole] | 388 | 150 | 
3 | CS(=O)(=O)N1CCN(Cc2nc3cc(-c4c[nH]c5cc(F)ccc45)ccc3[nH]2)CC1 [Compound 34, 5-(6-fluoro-1H-indol-3-yl)-2-((4-(methylsulfonyl)piperazin-1-yl)methyl)-1H-benzo[d]imidazole] |  | 863 | 
4 | NCCc1nc2ccc(-c3c[nH]c4cc(F)ccc34)cc2[nH]1 [Compound 35, 2-(6-(6-fluoro-1H-indol-3-yl)-1H-benzo[d]imidazol-2-yl)ethanamine] |  | 689 | 
5 | CC(=O)NCCc1nc2ccc(-c3c[nH]c4cc(F)ccc34)cc2[nH]1 [Compound 36, N-(2-(6-(6-fluoro-1H-indol-3-yl)-1H-benzo[d]imidazol-2-yl)ethyl)acetamide] |  | 1130 | 
6 | CS(=O)(=O)NCCc1nc2ccc(-c3c[nH]c4cc(F)ccc34)cc2[nH]1 [Compound 37, N-(2-(6-(6-fluoro-1H-indol-3-yl)-1H-benzo[d]imidazol-2-yl)ethyl)methanesulfonamide] |  | 1530 | 
7 | CS(=O)(=O)CCc1nc2cc(-c3c[nH]c4cc(F)ccc34)ccc2[nH]1 [Compound 38, 5-(6-fluoro-1H-indol-3-yl)-2-(2-(methylsulfonyl)ethyl)-1H-benzo[d]imidazole] |  | 505 | 512
8 | Fc1ccc2c(-c3ccc4nc(C5CCNCC5)[nH]c4c3)c[nH]c2c1 [Compound 39, 6-(6-fluoro-1H-indol-3-yl)-2-(piperidin-4-yl)-1H-benzo[d]imidazole] |  | 2860 | 
9 | CS(=O)(=O)N1CCC(c2nc3ccc(-c4c[nH]c5cc(F)ccc45)cc3[nH]2)CC1 [Compound 40, 6-(6-fluoro-1H-indol-3-yl)-2-(1-(methylsulfonyl)piperidin-4-yl)-1H-benzo[d]imidazole] |  | 750 | 
10 | CNCc1nc2cc(-c3c[nH]c4cc(F)ccc34)ccc2[nH]1 [Compound 44, 1-(5-(6-fluoro-1H-indol-3-yl)-1H-benzo[d]imidazol-2-yl)-N-methylmethanamine] |  | 345 | 
11 | Fc1ccc2c(-c3ccc4[nH]c(CN5CCOCC5)nc4c3)c[nH]c2c1 [Compound 45, 4-((5-(6-fluoro-1H-indol-3-yl)-1H-benzo[d]imidazol-2-yl)methyl)morpholine] |  | 595 | 
12 | Fc1ccc2c(-c3ccc4ocnc4c3)c[nH]c2c1 [Compound 47, 5-(6-fluoro-1H-indol-3-yl)benzo[d]oxazole] |  | 100 | 479
13 | Cc1nc2cc(-c3c[nH]c4cc(F)ccc34)ccc2o1 [Compound 48, 5-(6-fluoro-1H-indol-3-yl)-2-methylbenzo[d]oxazole] |  | 118 | 
14 | Fc1ccc2c(-c3ccc4ncoc4c3)c[nH]c2c1 [Compound 53, 6-(6-fluoro-1H-indol-3-yl)benzo[d]oxazole] |  | 79 | 
15 | Cc1nc2ccc(-c3c[nH]c4cc(F)ccc34)cc2o1 [Compound 54, 6-(6-fluoro-1H-indol-3-yl)-2-methylbenzo[d]oxazole] |  | 109 | 
16 | Fc1ccc2c(-c3ccc4nc(CN5CCNCC5)[nH]c4c3)c[nH]c2c1 [Compound 59, 6-(6-fluoro-1H-indol-3-yl)-2-(piperazin-1-ylmethyl)-1H-benzo[d]imidazole] |  | 622 | 
17 | NC(=O)Cc1nc2ccc(-c3c[nH]c4cc(F)ccc34)cc2[nH]1 [Compound 60, 2-(6-(6-fluoro-1H-indol-3-yl)-1H-benzo[d]imidazol-2-yl)acetamide] |  | 638 | 
18 | CN1CCN(Cc2nc3cc(-c4c[nH]c5cc(F)ccc45)ccc3o2)CC1 [Compound 62, 5-(6-fluoro-1H-indol-3-yl)-2-((4-methylpiperazin-1-yl)methyl)benzo[d]oxazole] |  | 210 | 335
19 | NC(=O)Cn1c(=O)oc2cc(-c3c[nH]c4cc(F)ccc34)ccc21 [Compound 64, 2-(6-(6-fluoro-1H-indol-3-yl)-2-oxobenzo[d]oxazol-3(2H)-yl)acetamide] |  | 176 | 501
20 | O=c1[nH]c2ccc(-c3c[nH]c4cc(F)ccc34)cc2[nH]1 [Compound 65, 5-(6-fluoro-1H-indol-3-yl)-1H-benzo[d]imidazol-2(3H)-one] |  | 109 | 335
21 | Fc1ccc2c(-c3ccc4nc(CN5CCOCC5)oc4c3)c[nH]c2c1 [Compound 66, 6-(6-fluoro-1H-indol-3-yl)-2-(morpholinomethyl)benzo[d]oxazole] |  | 203 | 284
22 | CN1CCN(Cc2nc3ccc(-c4c[nH]c5cc(F)ccc45)cc3o2)CC1 [Compound 68, 6-(6-fluoro-1H-indol-3-yl)-2-((4-methylpiperazin-1-yl)methyl)benzo[d]oxazole] |  | 78 | 218
23 | CS(=O)(=O)NCc1nc2cc(-c3c[nH]c4cc(F)ccc34)ccc2o1 [Compound 70, N-((5-(6-fluoro-1H-indol-3-yl)benzo[d]oxazol-2-yl)methyl)methanesulfonamide] |  | 251 | 435
24 | CS(=O)(=O)NCc1nc2ccc(-c3c[nH]c4cc(F)ccc34)cc2o1 [Compound 74, N-((6-(6-fluoro-1H-indol-3-yl)benzo[d]oxazol-2-yl)methyl)methanesulfonamide] |  | 72 | 152
25 | CC(=O)NCc1nc2ccc(-c3c[nH]c4cc(F)ccc34)cc2o1 [Compound 75, N-((6-(6-fluoro-1H-indol-3-yl)benzo[d]oxazol-2-yl)methyl)acetamide] |  | 92 | 143
26 | Fc1ccc2c(-c3ccc4nn(CC5CCNCC5)cc4c3)c[nH]c2c1 [Compound 77, 5-(6-fluoro-1H-indol-3-yl)-2-(piperidin-4-ylmethyl)-2H-indazole] |  | 246 | 265
27 | Fc1ccc2c(-c3ccc4nc(CN5CCNCC5)oc4c3)c[nH]c2c1 [Compound 78, 6-(6-fluoro-1H-indol-3-yl)-2-(piperazin-1-ylmethyl)benzo[d]oxazole] |  | 82 | 149
